According to article PMC4100783 (Biochemistry, 2014):
Values joined by “and” are separate entries in the source; they are usually repeats but may differ in a detail not shown here. Identical values can stand only once.

Legend:
MftR-mftrO complex = type: biochemical, Burkholderia thailandensis
MftR W11F = type: binding, Burkholderia thailandensis
MftR D56S = type: binding, Burkholderia thailandensis
mftR [1] = type: binding, Burkholderia thailandensis; settings: read-out: K
mftR [2] = type: binding, Burkholderia thailandensis
MftR-mftpO complex = type: biochemical, Burkholderia thailandensis
mftR [3] = settings: cited from earlier work
MftR WT = target: T1, MftR WT (Burkholderia thailandensis E264, UniProt Q2SVY7 1-164); experiment: EMSA
T1 sequence: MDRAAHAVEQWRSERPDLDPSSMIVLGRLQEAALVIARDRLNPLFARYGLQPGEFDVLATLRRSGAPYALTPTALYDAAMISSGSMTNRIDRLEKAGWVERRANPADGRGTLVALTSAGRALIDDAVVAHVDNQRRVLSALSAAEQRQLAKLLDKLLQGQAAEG

Molecule: O=c1[nH]c(=O)c2[nH]c(=O)[nH]c2[nH]1 [urate]
- IC50 (MftR-mftrO complex): 3700 ± 300 µM
- Tm of W11F (MftR W11F): 27.0 ± 0.1 °C and 28.8 ± 0.7 °C
- increase of Tm compared to protein alone (MftR W11F): ~4 °C
- Tm of D56S (MftR D56S): 52.3 ± 0.3 °C and 51.3 ± 0.1 °C
- Kd (mftR [1]): 6.1 ± 2.1 µM
- Tm of MftR (mftR [2]): 61.3 ± 1.0 °C
- Tm of MftR D1 (mftR [2]): 49.2 ± 0.2 °C
- Tm of MftR D2 (mftR [2]): 58.0 ± 0.1 °C
- IC50 (MftR-mftpO complex): 2200 µM

Molecule: O=c1[nH]c(=O)c2nc[nH]c2[nH]1 [xanthine]
- effect on DNA binding by MftR (mftR [3]): inhibit DNA binding, albeit less efficiently than urate

Molecule: O=c1[nH]cnc2nc[nH]c12 [hypoxanthine]
- effect on DNA binding by MftR (mftR [3]): inhibit DNA binding, albeit less efficiently than urate

B1: mftrO (dsDNA)
DNA 1: CGTCCAAGTTATCTTGACGTAGAGACATGTCGAATC
DNA 2: GATTCGACATGTCTCTACGTCAAGATAACTTGGACG
- Kd (MftR WT): 0.0007 ± 0.0001 µM

B2: mftpO (dsDNA)
DNA 1: TGTCGAATCTATCTTGATGTCGAGACAATTATACGC
DNA 2: GCGTATAATTGTCTCGACATCAAGATAGATTCGACA
- Kd (MftR WT): 0.0006 ± 0.0001 µM
